Reference: publication PMC3382786, “Anti-Hyperglycemic Effect of Chebulagic Acid from the Fruits of Terminalia chebula Retz” (International Journal of Molecular Sciences, 2012)
In brackets after ≈: the same amount, converted by molar mass.

How the values were obtained:
[1] = test system: T1, Caco-2 maltase (maltose-hydrolysis activity of α-glucosidase); experiment: maltose hydrolysis on Caco-2 monolayer, liberated glucose by glucose oxidase; assay type: cell-based, Homo sapiens; conditions: 28 mM maltose in PBS; 37 °C, 2 h; reversible
T1 construct: gene SI; native enzyme on the apical side of differentiated Caco-2 monolayer

[2] = biological target: T2, rat intestinal α-glucosidase (maltase activity); experiment: maltose hydrolysis, liberated glucose by glucose oxidase; assay type: biochemical; conditions: maltose 3.5 mM stock (0.35 of 0.5 mL); 0.1 M potassium phosphate pH 6.3; 37 °C, 15 min; crude enzyme
T2 construct: gene Mgam; crude native enzyme solution from rat intestinal acetone powder (Sigma-Aldrich); maltose hydrolysis; not purified

IC50 [2]: 37 µg/mL (≈ 38.8 µM)
SMILES: O=C(O)C[C@@H]1C(=O)O[C@H]2[C@@H]3OC(=O)c4cc(O)c(O)c(O)c4-c4c(cc(O)c(O)c4O)C(=O)OC[C@H]2O[C@@H](OC(=O)c2cc(O)c(O)c(O)c2)[C@@H]3OC(=O)c2cc(O)c(O)c3c2[C@H]1[C@H](O)C(=O)O3 [chebulagic acid]
% inhibition at 0.5 mM/well [1]: 73%
